# “And” between values parts separate entries of the source, which are not always exact repeats. Equal entries are not always repeated.
# Target: T1, Alpha-1A adrenergic receptor (Canis lupus familiaris, UniProt O77621)
# T1 sequence (O77621 whole entry): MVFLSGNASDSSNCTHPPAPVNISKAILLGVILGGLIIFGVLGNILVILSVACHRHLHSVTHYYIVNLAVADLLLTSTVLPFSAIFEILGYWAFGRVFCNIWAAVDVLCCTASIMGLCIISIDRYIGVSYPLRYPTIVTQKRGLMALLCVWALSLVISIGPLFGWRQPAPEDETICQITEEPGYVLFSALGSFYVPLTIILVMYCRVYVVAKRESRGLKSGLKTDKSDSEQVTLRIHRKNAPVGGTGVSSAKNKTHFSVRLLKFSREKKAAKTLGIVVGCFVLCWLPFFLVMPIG
row,Compound,Ki
1,"Clc1cccc(Cl)c1N=C1NCCN1 [2-(2,6-dichloroanilino)-2-imidazoline]",37 nM
2,COC(=O)[C@@H]1[C@H]2C[C@H]3c4[nH]c5ccccc5c4CCN3C[C@@H]2CC[C@@H]1O [yohimbic acid methyl ester],32 nM and 13.4 nM
3,Cc1ccc(N(CC2=NCCN2)c2cccc(O)c2)cc1 [SMR000059054],2.55 nM and 1.27 nM
4,Cc1cc(C(C)(C)C)c(O)c(C)c1CC1=NCCN1 [SMR000059324],33 nM and 9 nM
5,CNCC(O)c1ccc(O)c(O)c1 (stereo not drawn) [EPINEPHRINE],110 nM and 30 nM
6,COc1cc2nc(N3CCN(C(=O)c4ccco4)CC3)nc(N)c2cc1OC [[3H]-Minipress],0.02 nM and 0.01 nM
7,CNC[C@H](O)c1cccc(O)c1 [PHENYLEPHRINE],901 nM and 213 nM
8,"NCC(O)c1ccc(O)c(O)c1 (stereo not drawn) [Noradrenaline,(+)]",178 nM and 67 nM

# From BindingDB's records for PubMed 2885412 (Unwersity of Misscuri, 1987)
